The term MIC denotes the smallest concentration in the dilution series that meets the test's criterion for growth inhibition. By MFC is commonly meant the smallest concentration meeting the test's criterion for killing the fungus. The MBC is the smallest concentration meeting the test's criterion for killing.

Converted amounts (≈) assume the structure as drawn. A value given as a limit tells only on which side of the number the result lay.

The first test concerns the target mushroom tyrosinase. Nature of the test: Tyrosinase inhibitory activity (spectrophotometric, DOPA substrate). Format: biochemical. The note with it: pH 6.8, 37 °C, 15 min, positive control = kojic acid. The protocol:
The reaction mixture was vortexed and maintained at 37 °C for 15 min, and then the absorption maximum of dopachrome (set at 479 nm) was measured using a microplate reader (Molecular Devices, Sunnyvale, California, USA). The tests were performed in triplicate, and the value of tyrosinase inhibition activity was calculated as described above.
Consider `C=CC(C)(O)CCC=C(C)C` (centres unmarked) [Linalool], for which the “Tyrosinase inhibition IC50” value was determined as 730 ± 44 a μg/mL.

`O=c1c(O[C@@H]2O[C@H](CO)[C@H](O)[C@H](O)[C@H]2O)c(-c2ccc(O)c(O)c2)oc2cc(O)cc(O)c12` [Hyperoside] registered a Tyrosinase inhibition IC50 of 0.762 ± 0.018 µg/mL.

Staying with this test, now noted: pH 6.8, 37 °C, 15 min, positive control = kojic acid, listed as hyperoside.
`O=c1c(O[C@@H]2O[C@H](CO)[C@H](O)[C@H](O)[C@H]2O)c(-c2ccc(O)c(O)c2)oc2cc(O)cc(O)c12` [Hyperoside]: the “Tyrosinase inhibition IC50” value is less than 1 µg/mL.

System in another test: not listed separately
Nature of the test: DPPH radical scavenging activity. The note with it: 30 min in the dark, 517 nm; positive control = ascorbic acid. As for the experimental part: The antioxidant activity of RFCS and the standards were evaluated by DPPH radical scavenging activity using a slightly modified version of a previously reported method. […] Aliquots (100 μL) of the supernatants were transferred into a 96-well microplate, and the absorbance of each was recorded at 517 nm using a Spectramax Plus384 UV-Vis spectrophotometer (Molecular Devices, Sunnyvale, California, USA). […] The IC50 values, which represent the concentrations of rose samples and standard substance at which 50% of the DPPH radical was inhibited, were determined. The tests were performed in triplicate, and the percentage of DPPH scavenging was calculated using the following equation. Inhibition%=H0-H/H0×100 H:Absorbance of RFCS and the standards;H0:Absorbance of the blank
For orientation: The DPPH test is a chemical assay of radical scavenging.
Take `C=CC(C)(O)CCC=C(C)C` (centres unmarked) [Linalool]: the “DPPH radical scavenging activity IC50” value is listed as > 10,000 a μg/mL.

For the molecule `O=c1c(O[C@@H]2O[C@H](CO)[C@H](O)[C@H](O)[C@H]2O)c(-c2ccc(O)c(O)c2)oc2cc(O)cc(O)c12` [Hyperoside], the “DPPH radical scavenging activity IC50” value turned out to be 0.695 ± 0.021 c μg/mL.

A further test relates to candida albicans (ATCC 10231). As to the kind of experiment: MIC and MFC, broth microdilution. Format: cell-based. The note with it: Candida albicans, ATCC10231; C. albicans, 37 °C, 24 h; read-out: MIC. The protocol:
(§1) The antimicrobial activity was measured by the method described by Xue. All standard strains were obtained from the Guangdong Microbiology Culture Center (Guangzhou, China). Listeria ivanovii (ATCC 19119) was cultured in BHI, Salmonella enteritidis enteritidis (ATCC 14028) Staphylococcus aureus (ATCC 25923) and Escherichia coli (ATCC 25922) were cultured in nutrient agar (NA) for 24 h and at 37 °C. candida albicans (ATCC 10231) was cultured in PHB at 37 °C for 24 h. Propionibacterium acnes (ATCC 6919) and Fusobacterium nucleatum (ATCC 10953) were cultured in CDC agar at 37 °C for 48 h in a YQX-II anaerobic incubator (Shanghai, China). The final cell counts in l mL of broth were approximately 10^6 colony-forming units (CFU/mL). A 10 mg/mL solution of miconazole nitrate and hydrochloride tetracycline in water was used as a positive control against fungi and bacteria, respectly.
(§2) The MIC and MBC or MFC values were determined as described previously by Xue. Briefly, 100 μL dilutions (approximately 100,000 CFU/mL) of Staphylococcus aureus, Escherichia coli, Salmonella enteritidis enteritidis, Fusobacterium nucleatum, and Candida albicans in nutrient broth and Listeria ivanovii and Propionibacterium acnes in GMA broth were inoculated into microtiter plates. Then, 100 μL aliquots of the solutions of the test compound were added after a two-fold serial dilution with nutrient broth (from 2 mg/mL to 3 μg/mL). Broths with 5% (v/v) DMSO were used as controls. The petri dishes were incubated at 37 °C for 24 h with the exception of Propionibacterium acnes and Fusobacterium nucleatum, which were incubated at 37 °C for 48 h. The MIC was recorded as the lowest concentration of sample showing no detectable growth. To determine the MBC or MFC values for no bacterial or fungus growth, 10 μL of sub-inhibitory concentrations of the test compounds were incubated on CDC or GMA agar plates for 24 or 48 h. Every determination was carried out in triplicate.
(In general: In broth dilution the organism is exposed to a series of concentrations in liquid medium.)
As to `C=CC(C)(O)CCC=C(C)C` (centres unmarked) [Linalool], the MIC stood at 250 µg/mL (≈ 1620 µM).

Take `O=c1c(O[C@@H]2O[C@H](CO)[C@H](O)[C@H](O)[C@H]2O)c(-c2ccc(O)c(O)c2)oc2cc(O)cc(O)c12` [Hyperoside]: the MIC worked out at 250 µg/mL (≈ 538 µM).

The same test, now with this note: Candida albicans, ATCC10231; C. albicans; read-out: MFC.
In the case of `C=CC(C)(O)CCC=C(C)C` (centres unmarked) [Linalool], the MFC is 1000 µg/mL (≈ 6480 µM).

For `O=c1c(O[C@@H]2O[C@H](CO)[C@H](O)[C@H](O)[C@H]2O)c(-c2ccc(O)c(O)c2)oc2cc(O)cc(O)c12` [Hyperoside], the MFC came to 1000 µg/mL (≈ 2150 µM).

System in another test: not listed separately
As to the kind of experiment: ABTS radical scavenging. The note with it: 30 °C, 30 min; positive control = Trolox. The protocol:
The ABTS assay of RFCS was performed according to a modified version of a previously reported method. Briefly, the stock solutions were generated by mixing equal quantities of 7.4 mM ABTS^●+ solution and 2.6 mM potassium persulfate solution, and the mixture was incubated at room temperature for 12 h in the dark. Then, the solution was equilibrated with 1 mL of ABTS^●+ solution with 50% ethanol serving as a positive control. The absorbance of the solution at 734 nm was 1.17 ± 0.02 units. […] The mixture was mixed vigorously and incubated at 30 °C for 30 min. The absorbance was then measured at […] using the spectrophotometer. […] Inhibition%=Absorbance of blank-Absorbance of sample/Absorbance of blank×100
As for `C=CC(C)(O)CCC=C(C)C` (centres unmarked) [Linalool], the “ABTS radical scavenging activity IC50” value is reported as > 10,000 a μg/mL.

In the case of `O=c1c(O[C@@H]2O[C@H](CO)[C@H](O)[C@H](O)[C@H]2O)c(-c2ccc(O)c(O)c2)oc2cc(O)cc(O)c12` [Hyperoside], the “ABTS radical scavenging activity IC50” value worked out at 0.526 ± 0.014 c μg/mL.

In another test the test system is Propionibacterium acnes (ATCC 6919). As to the kind of experiment: MIC and MBC, broth microdilution. It is filed as cell-based. The note with it: Cutibacterium acnes, ATCC6919; P. acnes, anaerobic, 37 °C, 48 h; read-out: MIC. As for the experimental part: as §1, §2
For `C=CC(C)(O)CCC=C(C)C` (centres unmarked) [Linalool], the MIC is 250 µg/mL (≈ 1620 µM).

Consider `O=c1c(O[C@@H]2O[C@H](CO)[C@H](O)[C@H](O)[C@H]2O)c(-c2ccc(O)c(O)c2)oc2cc(O)cc(O)c12` [Hyperoside], for which the MIC was 250 µg/mL (≈ 538 µM).

Still in this test, the particulars now being: Cutibacterium acnes, ATCC6919; P. acnes; read-out: MBC.
Take `C=CC(C)(O)CCC=C(C)C` (centres unmarked) [Linalool]: the MBC is 1000 µg/mL (≈ 6480 µM).

In the case of `O=c1c(O[C@@H]2O[C@H](CO)[C@H](O)[C@H](O)[C@H]2O)c(-c2ccc(O)c(O)c2)oc2cc(O)cc(O)c12` [Hyperoside], the MBC was determined as 1000 µg/mL (≈ 2150 µM).

A further test has as its system Staphylococcus aureus (ATCC 25923). As to the kind of experiment: MIC and MBC, broth microdilution. It is filed as cell-based. The note with it: Staphylococcus aureus, ATCC25923; S. aureus, 37 °C, 24 h; read-out: MIC. The protocol: as §1, §2
With `C=CC(C)(O)CCC=C(C)C` (centres unmarked) [Linalool], the MIC worked out at 250 µg/mL (≈ 1620 µM).

For `O=c1c(O[C@@H]2O[C@H](CO)[C@H](O)[C@H](O)[C@H]2O)c(-c2ccc(O)c(O)c2)oc2cc(O)cc(O)c12` [Hyperoside], the MIC worked out at 250 µg/mL (≈ 538 µM).

The same test, now with this note: Staphylococcus aureus, ATCC25923; S. aureus; read-out: MBC.
On to `C=CC(C)(O)CCC=C(C)C` (centres unmarked) [Linalool], for which the MBC is 1000 µg/mL (≈ 6480 µM).

With `O=c1c(O[C@@H]2O[C@H](CO)[C@H](O)[C@H](O)[C@H]2O)c(-c2ccc(O)c(O)c2)oc2cc(O)cc(O)c12` [Hyperoside], the MBC came out at 1000 µg/mL (≈ 2150 µM).

The test system of another test is Escherichia coli (ATCC 25922). As to the kind of experiment: MIC and MBC, broth microdilution. Format: cell-based. The note with it: Escherichia coli, ATCC25922; E. coli, 37 °C, 24 h; read-out: MIC. The protocol:
as §1, §2
As for `C=CC(C)(O)CCC=C(C)C` (centres unmarked) [Linalool], the MIC amounted to 250 µg/mL (≈ 1620 µM).

Turning to `O=c1c(O[C@@H]2O[C@H](CO)[C@H](O)[C@H](O)[C@H]2O)c(-c2ccc(O)c(O)c2)oc2cc(O)cc(O)c12` [Hyperoside], the MIC amounted to 250 µg/mL (≈ 538 µM).

The same test, now with this note: Escherichia coli, ATCC25922; E. coli; read-out: MBC.
As to `C=CC(C)(O)CCC=C(C)C` (centres unmarked) [Linalool], the MBC is 1000 µg/mL (≈ 6480 µM).

`O=c1c(O[C@@H]2O[C@H](CO)[C@H](O)[C@H](O)[C@H]2O)c(-c2ccc(O)c(O)c2)oc2cc(O)cc(O)c12` [Hyperoside]: the MBC was determined as 1000 µg/mL (≈ 2150 µM).

Another test has as its system Salmonella enteritidis enteritidis (ATCC 14028). As to the kind of experiment: MIC and MBC, broth microdilution. It is filed as cell-based. The note with it: Salmonella enterica; S. enteritidis enteritidis, 37 °C, 24 h; read-out: MIC. As for the experimental part: as §1, §2
Consider `C=CC(C)(O)CCC=C(C)C` (centres unmarked) [Linalool], for which the MIC came to 500 µg/mL (≈ 3240 µM).

For `O=c1c(O[C@@H]2O[C@H](CO)[C@H](O)[C@H](O)[C@H]2O)c(-c2ccc(O)c(O)c2)oc2cc(O)cc(O)c12` [Hyperoside], the MIC was 250 µg/mL (≈ 538 µM).

The test is the same for the next values; noted with them: Salmonella enterica; S. enteritidis enteritidis; read-out: MBC.
As to `C=CC(C)(O)CCC=C(C)C` (centres unmarked) [Linalool], the MBC is greater than 1000 µg/mL.

As for `O=c1c(O[C@@H]2O[C@H](CO)[C@H](O)[C@H](O)[C@H]2O)c(-c2ccc(O)c(O)c2)oc2cc(O)cc(O)c12` [Hyperoside], the MBC stood at 500 µg/mL (≈ 1080 µM).

In a further test the test system is Fusobacterium nucleatum (ATCC 10953). As to the kind of experiment: MIC and MBC, broth microdilution. Format: cell-based. The note with it: Fusobacterium nucleatum, ATCC10953; F. nucleatum, anaerobic, 37 °C, 48 h; read-out: MIC. As for the experimental part:
as §1, §2
As to `C=CC(C)(O)CCC=C(C)C` (centres unmarked) [Linalool], the MIC is 250 µg/mL (≈ 1620 µM).

`O=c1c(O[C@@H]2O[C@H](CO)[C@H](O)[C@H](O)[C@H]2O)c(-c2ccc(O)c(O)c2)oc2cc(O)cc(O)c12` [Hyperoside]: the MIC stood at 250 µg/mL (≈ 538 µM).

Still in this test, the particulars now being: Fusobacterium nucleatum, ATCC10953; F. nucleatum; read-out: MBC.
In the case of `C=CC(C)(O)CCC=C(C)C` (centres unmarked) [Linalool], the MBC was 1000 µg/mL (≈ 6480 µM).

Turning to `O=c1c(O[C@@H]2O[C@H](CO)[C@H](O)[C@H](O)[C@H]2O)c(-c2ccc(O)c(O)c2)oc2cc(O)cc(O)c12` [Hyperoside], the MBC was found to be 500 µg/mL (≈ 1080 µM).

In the next test the test system is Listeria ivanovii (ATCC 19119). As to the kind of experiment: MIC and MBC, broth microdilution. Format: cell-based. The note with it: Listeria ivanovii, ATCC19119; L. ivanovii, 37 °C, 24 h; read-out: MIC. The protocol:
as §1, §2
With `C=CC(C)(O)CCC=C(C)C` (centres unmarked) [Linalool], the MIC is 500 µg/mL (≈ 3240 µM).

`O=c1c(O[C@@H]2O[C@H](CO)[C@H](O)[C@H](O)[C@H]2O)c(-c2ccc(O)c(O)c2)oc2cc(O)cc(O)c12` [Hyperoside]: the MIC is 250 µg/mL (≈ 538 µM).

Staying with this test, now noted: Listeria ivanovii, ATCC19119; L. ivanovii; read-out: MBC.
Consider `C=CC(C)(O)CCC=C(C)C` (centres unmarked) [Linalool], for which the MBC is greater than 1000 µg/mL.

On to `O=c1c(O[C@@H]2O[C@H](CO)[C@H](O)[C@H](O)[C@H]2O)c(-c2ccc(O)c(O)c2)oc2cc(O)cc(O)c12` [Hyperoside], for which the MBC was found to be 500 µg/mL (≈ 1080 µM).
